Data from BindingDB's records for doi:10.7270/Q2NC5ZRN (Burnham Center For Chemical Genomics, 2012).

The compounds below were run against DNA (cytosine-5)-methyltransferase 1 (Homo sapiens, UniProt P26358) (assay: DNMT1 methyltransferase inhibitors, confirmation, biochemical, fluorescent molecular beacon (AID 602386)).
Chain of DNA (cytosine-5)-methyltransferase 1 (P26358 whole entry): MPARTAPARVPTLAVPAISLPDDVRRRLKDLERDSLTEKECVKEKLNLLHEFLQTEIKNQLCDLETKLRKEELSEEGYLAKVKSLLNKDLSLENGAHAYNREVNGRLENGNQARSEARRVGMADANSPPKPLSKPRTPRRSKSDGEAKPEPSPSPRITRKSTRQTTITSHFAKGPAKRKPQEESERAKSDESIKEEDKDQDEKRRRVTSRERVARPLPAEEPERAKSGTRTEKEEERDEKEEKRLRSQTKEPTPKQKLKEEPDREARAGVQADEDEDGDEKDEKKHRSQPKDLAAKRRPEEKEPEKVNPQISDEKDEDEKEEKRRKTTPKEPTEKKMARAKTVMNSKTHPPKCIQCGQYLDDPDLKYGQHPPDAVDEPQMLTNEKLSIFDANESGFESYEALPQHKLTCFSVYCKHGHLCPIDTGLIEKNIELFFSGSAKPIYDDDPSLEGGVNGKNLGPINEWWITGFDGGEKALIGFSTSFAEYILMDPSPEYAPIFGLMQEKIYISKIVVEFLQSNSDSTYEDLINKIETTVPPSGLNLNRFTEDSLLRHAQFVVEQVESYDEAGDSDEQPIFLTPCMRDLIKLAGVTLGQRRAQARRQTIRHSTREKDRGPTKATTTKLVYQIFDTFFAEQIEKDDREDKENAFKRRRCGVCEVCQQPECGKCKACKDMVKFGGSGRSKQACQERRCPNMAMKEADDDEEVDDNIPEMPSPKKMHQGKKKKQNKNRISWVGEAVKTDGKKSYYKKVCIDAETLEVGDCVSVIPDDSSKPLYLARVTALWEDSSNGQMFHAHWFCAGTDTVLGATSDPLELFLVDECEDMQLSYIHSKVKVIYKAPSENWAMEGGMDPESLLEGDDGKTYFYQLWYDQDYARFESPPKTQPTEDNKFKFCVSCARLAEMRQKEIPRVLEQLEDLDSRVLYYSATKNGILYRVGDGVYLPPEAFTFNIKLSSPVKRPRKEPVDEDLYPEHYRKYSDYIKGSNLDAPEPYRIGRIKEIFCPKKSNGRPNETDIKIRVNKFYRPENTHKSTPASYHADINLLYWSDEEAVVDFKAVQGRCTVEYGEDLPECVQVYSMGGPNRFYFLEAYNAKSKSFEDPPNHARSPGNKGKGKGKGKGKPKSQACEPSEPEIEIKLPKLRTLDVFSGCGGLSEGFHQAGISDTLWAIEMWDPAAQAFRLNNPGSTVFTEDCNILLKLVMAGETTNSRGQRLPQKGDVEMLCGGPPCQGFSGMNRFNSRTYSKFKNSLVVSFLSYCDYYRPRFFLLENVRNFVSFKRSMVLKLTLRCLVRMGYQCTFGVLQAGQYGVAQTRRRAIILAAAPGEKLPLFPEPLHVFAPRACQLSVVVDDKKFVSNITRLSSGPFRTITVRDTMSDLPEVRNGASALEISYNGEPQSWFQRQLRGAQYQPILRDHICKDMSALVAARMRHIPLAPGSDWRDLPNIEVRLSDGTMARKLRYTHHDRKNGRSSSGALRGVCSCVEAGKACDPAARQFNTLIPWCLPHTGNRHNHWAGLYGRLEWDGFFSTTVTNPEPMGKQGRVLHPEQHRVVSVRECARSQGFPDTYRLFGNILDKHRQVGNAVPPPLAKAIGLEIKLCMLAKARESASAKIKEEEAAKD

Row | IC50 [µM] | Structure (SMILES)
1 | > 99 | Cc1ccc(C(=O)N[n+]2cc(O)[c-](-c3nc(-c4cccc([N+](=O)[O-])c4)cs3)c2N)cc1 [MLS000391743]
2 | > 99 | CCN(CC)CCOc1ccc2c(c1)C(N=O)c1cc(OCCN(CC)CC)ccc1-2 [MLS000518859]
3 | 3.25 | O=C(/C=C/c1ccco1)NCC(=O)NNC1=c2ccccc2=NC1=O [MLS001075666]
4 | 3.26 | CSc1ccc(CN=Nc2ccc(S(=O)(=O)Nc3ccccc3C(=O)O)cc2[N+](=O)[O-])cc1 [MLS002245633]
5 | 4.35 | COc1ccc(OC)c(-n2c(O)c3o[nH]c(-c4ccccc4Cl)c-3c2=O)c1 [SMR000046218]
6 | 1.18 | C=c1[nH]n(-c2cccc(C(=O)O)c2)c(=O)c1=CC=Cc1ccco1 [SMR000113614]
7 | 2.86 | COc1ccc(C=c2c(=CSc3ccc(Cl)cc3)[nH]n(-c3nc4ccccc4s3)c2=O)cc1 [SMR000193462]
8 | 7.65 | NS(=O)(=O)c1ccc(NN=C2C=CC(=O)NC2=O)cc1 [SMR000528591]
9 | 8.51 | O=C(CSc1nc(O)cc(=O)[nH]1)Nc1ccccc1[N+](=O)[O-] [SMR000620617]

The remaining lines, values behind:

Row | Structure (SMILES) | IC50 [µM]
10 | CCOC1=CC(=Cc2c(-c3ccccc3)[nH]n(-c3nc(-c4ccc(Br)cc4)cs3)c2=O)C=CC1=O | 4.35
11 | O=C1N=c2ccccc2=C1NNc1ccc(F)cc1 | 19.3
12 | CCOc1ccc(CN=Nc2ccc(S(=O)(=O)Nc3ccccc3C(=O)O)cc2[N+](=O)[O-])cc1 | 5.78
13 | CCCCn1c(NC(=S)Nc2ccccc2)nc2ccccc21 | 1.02
14 | C=CCOc1ccc(CN=Nc2ccc(S(=O)(=O)Nc3ccccc3C(=O)O)cc2[N+](=O)[O-])cc1OC [2-[[4-[2-[(3-methoxy-4-prop-2-enoxy-phenyl)methylidene]hydrazinyl]-3-nitro-phenyl]sulfonylamino]benzoic acid] | 5.32
15 | COc1cc(NS(=O)(=O)c2ccc(NC(=S)NC(=O)c3sc4ccccc4c3Cl)cc2)nc(OC)n1 [3-chloranyl-N-[[4-[(2,6-dimethoxypyrimidin-4-yl)sulfamoyl]phenyl]carbamothioyl]-1-benzothiophene-2-carboxamide] | 41
16 | NC(=NNC=c1ccc(=C2C=CC(=O)C(C(=O)O)=C2)o1)N[N+](=O)[O-] [5-(5-{2-[amino(nitroimino)methyl]carbonohydrazonoyl}-2-furyl)-2-hydroxybenzoic acid] | 3.94
17 | Cc1[nH]n(-c2ccccc2)c(=O)c1C=C1NC(=S)NC1=O [5-methyl-4-[(Z)-(5-oxo-2-sulfanylideneimidazolidin-4-ylidene)methyl]-2-phenyl-4H-pyrazol-3-one] | 8.39
18 | CC=CC=CC(=O)C1C(=O)[C@]2(C)C(=O)C(C)(O)[C@H]1[C@H]([C@]1(C)OC(=O)C(C)C1=O)[C@H]2C(=O)C=CC=CC (stereo partly drawn) [(1S,4R,6E,7S,8R)-8-[(2E,4E)-hexa-2,4-dienoyl]-2-hydroxy-7-[(2S)-5-hydroxy-2,4-dimethyl-3-oxofuran-2-yl]-6-[(2E,4E)-1-hydroxyhexa-2,4-dienylidene]-2,4-dimethylbicyclo[2.2.2]octane-3,5-dione] | 5.25
19 | COc1ccccc1N1CC=[N+](N[CH-]c2ccc(Cl)c([N+](=O)[O-])c2)CC1 [(E)-1-(4-chloro-3-nitrophenyl)-N-[4-(2-methoxyphenyl)piperazin-1-yl]methanimine] | > 99
